Measured values from US10524472B2, “Elicitor peptides having disrupted hypersensitive response box and use thereof” (Plant Health Care, Inc., priority 2014, dated 2020).
Marks after values point to notes of the source that are not given here.

tested on: tobacco mosaic virus (TMV); assay: Induction of resistance to tobacco mosaic virus in tobacco; type: in vivo; conditions: covered leaf

| Substance | efficacy on covered leaves, systemic immune response |
| --- | --- |
| GGLTLTGVDQKLMKILNALVQ (P25-9D) | reduced efficacy on covered leaves |
| QDPMQASMQLLEDLVKLLK (P14d-7S) | reduced efficacy on covered leaves |
| SEEEEEDAQLLAQLLKSLL (P18min-7D) | reduced efficacy on covered leaves |

same assay, conditions: foliar spray

| Substance | TMV response / effectiveness against TMV infection (summary of Table 22) |
| --- | --- |
| QDPMQALMQLLEDLVKLDK (P14d-18D) | weaker TMV responses |
| SEEEEEDAQLLAQLLKSLL (P18min-7D) | weaker TMV responses |
| SEEEEELAQLSAQLLKSLL (P18min-11S) | weaker TMV responses |
| SEEEEELKALLKSIARLL (P19min-13S) | poor immune activation |

same assay, conditions: foliar spray, listed as P19 min-135

| Substance | TMV response / effectiveness against TMV infection (summary of Table 22) |
| --- | --- |
| SEEEEELKALLKSIARLL (P19min-13S) | weaker TMV responses |

same assay, conditions: spray 10 ug/ml, TMV 3 days post-treatment, scored 3 days after inoculation

| Substance | Effectiveness Covered (%) (decline in TMV lesions vs UTC, systemic response) | Effectiveness Uncovered (%) (decline in TMV lesions vs UTC, local response) |
| --- | --- | --- |
| QAGPQSANKTGNVDDANNQDPAQALAQLLEDLV (P14-22A,26A) | 93* % | 92* % |
| QAGPQSANKTGNVDDANNQDPLQAAAQLLEDLV (P14-22L,25-26A) | 75* % | 87* % |
| QAGPQSANKTGNVDDANNQDPLQALAQLAEDLV (P14-22L,26,29A) | 70* % | 85* % |
| QAGPQSANKTGNVDDANNQDPLQALLQLAEDAV (p14-22L,29,32A) [P14-22L,28,32A] | 37* % | 71* % |
| QAGPQSANKTGNVDDANNQDPLQALLQLLEDAA (P14-22L,32-33A) | 69* % | 91* % |
| QAGPQSANKTGNVDDANNQDPMQALMQLLED (P14-dc2) | 56% | 76* % |
| QAGPQSANKTGNVDDANNQDPMQALMQLLEDL (P14-dc1) | 46% | 65* % |

same assay, conditions: spray 20 ug/ml, TMV 3 days post-treatment, scored 3 days after inoculation

| Substance | Effectiveness Covered (%) (decline in TMV lesions vs UTC, systemic response) | Effectiveness Uncovered (%) (decline in TMV lesions vs UTC, local response) |
| --- | --- | --- |
| GGLTLTGVDQKLMKILNALVQ (P25-9D) | 55% | 78* % |
| KPNDSQSNIAKLISALI (P15-62) | −122% | 94* % |
| KPNDSQSNIAKLISALIMSLSQ (P15b-21S) | 97* % | 100* % |
| KPNDSQSNIAKSISALIMSLLQ (P15b-12S) | 47% | 76* % |
| PSPFTQMLMHIVGEDLQAQN (P6a-15D) | 74* % | 74* % |
| PSPFTQMLMHSVGEILQAQN (P6a-11S) | 88* % | 71* % |
| QAGPQSANKTGNVDDANNQDPAQALLQLLEDLV (P14-22A,26L) | 62% | 48% |
| QAGPQSANKTGNVDDANNQDPEQALLQLLEDLV (P14-22E,26L) | 84* % | 61* % |
| QAGPQSANKTGNVDDANNQDPE_ALAQLLEDLV (QAGPQSANKTGNVDDANNQDPEALAQLLEDLV; P14-22E,26A) | 88* % | 89* % |
| QAGPQSANKTGNVDDANNQDPLQALAQLLEDLV (P14-22L,26A) | 83* % | 72* % |
| QDPAQALEQLLEDLVKSLK (p14f-17S) | 84* % | 94* % |
| QDPMQADMQLLEDLVKLLK (P14d-7D) | 55* % | 71* % |
| QDPMQALMQDLEDLVKLLK (P14d-10D) | 84* % | 84* % |
| QDPMQALMQLDEDLVKLLK (P14d-11D) | 87* % | 81* % |
| QDPMQALMQLLEDDVKLLK [P14d-14D] | 35% | 84* % |
| QDPMQALMQLLEDLDKLLK (P14d-15D) | 74* % | 87* % |
| QDPMQALMQLLEDLVKDLK (P14d-17D) | 65* % | 68* % |

| Substance | Effectiveness Covered (%) (decline in TMV lesions vs UTC, systemic response) | Effectiveness Uncovered (%) (decline in TMV lesions vs UTC, local response) |
| --- | --- | --- |
| QDPMQALMQLLEDLVKLDK (P14d-18D) | 32% | 52% |
| QDPMQASMQLLEDLVKLLK (P14d-7S) | 23% | −112% |
| QQPIDRQTIEQMAQLLAQLL (P18-8) | 78* % | 55% |
| SEEEEEALEQLLEDLVKLL (P14-31) | 87* % | 85* % |
| SEEEEEDAQLLAQLLKSLL (P18min-7D) | 29% | 26% |
| SEEEEEEEIAKLISALIESLL (P15-60) | 13% | 55% |
| SEEEEEEEIAKLIS_LIESLL (SEEEEEEEIAKLISLIESLL; P15-61) | 7% | 55* % |
| SEEEEEEIAKLISALI (P15-63) | 74* % | 90* % |
| SEEEEELAQLLAQLL (P18-9) | 52% | 65* % |
| SEEEEELAQLSAQLLKSLL (P18min-11S) | −274% | −90% |
| SEEEEELEQLLEDLV (P14-39) | 66* % | 72* % |
| SEEEEELKALLKSIARLL (P19min-13S) | −70% | 35% |
| SEEEEELKALSKLIARLL (P19min-11S) | 45% | 71* % |
| SEEEEELKASLKLIARLL (P19min-10S) | 94* % | 81* % |
| SEEEEELLQLLEDLV (P14-41) | 61* % | 86* % |
| SEEEEELQKLLK_ILEALV (SEEEEELQKLLKILEALV; P25-9) | 87* % | 68% |
